According to ChEMBL document CHEMBL4765419, “Design, synthesis and bioactivity evaluation of novel arylalkene-amide derivatives as dual-target antifungal inhibitors” (Eur J Med Chem, 2020):
The source made the active and inactive calls. The calls are words filed in the database; no cut-off is given here.

Key:
Candida albicans [1] = test: Antifungal activity against Candida albicans assessed as inhibition of microbial growth by two fold broth microdilution method; format: functional
Pichia kudriavzevii = test: Antifungal activity against Candida krusei assessed as inhibition of microbial growth by two fold broth microdilution method; format: functional
Nakaseomyces glabratus = test: Antifungal activity against Candida glabrata assessed as inhibition of microbial growth by two fold broth microdilution method; format: functional
Aspergillus fumigatus = test: Antifungal activity against Aspergillus fumigatus assessed as inhibition of microbial growth by two fold broth microdilution method; format: functional
Candida tropicalis = test: Antifungal activity against Candida tropicalis assessed as inhibition of microbial growth by two fold broth microdilution method; format: functional
Candida albicans [2] = test: Antifungal activity against fluconazole-resistant Candida albicans 17# assessed as inhibition of microbial growth by two fold broth microdilution method; format: functional
Candida albicans [3] = test: Antifungal activity against fluconazole-resistant Candida albicans CaR assessed as inhibition of microbial growth by two fold broth microdilution method; format: functional
Candida albicans [4] = test: Antifungal activity against fluconazole-resistant Candida albicans 632 assessed as inhibition of microbial growth by two fold broth microdilution method; format: functional
Candida albicans [5] = test: Antifungal activity against fluconazole-resistant Candida albicans 901 assessed as inhibition of microbial growth by two fold broth microdilution method; format: functional
Candida albicans [6] = test: Antifungal activity against fluconazole-resistant Candida albicans 904 assessed as inhibition of microbial growth by two fold broth microdilution method; format: functional
Candida albicans [7] = test: Antifungal activity against Candida albicans ATCC SC5314 assessed as decrease in fungal cell density by polarizing microscopy; format: functional, organism-based
Candida albicans SC5314 [8] = test: Inhibition of CYP51 in Candida albicans ATCC SC5314 assessed as ergosterol level at 4 ug/ml incubated for 16 hrs by LC/MS analysis (reference value: 79.43 %); parameters: scale not given: the % may be the effect or the level left; conditions: dose 4.0 µg/ml
Candida albicans SC5314 [9] = test: Inhibition of CYP51 in Candida albicans ATCC SC5314 assessed as lanosterol level at 4 ug/ml incubated for 16 hrs by LC/MS analysis (reference value: 6.62 %); parameters: scale not given: the % may be the effect or the level left; conditions: dose 4.0 µg/ml
Candida albicans SC5314 [10] = test: Inhibition of CYP51 in Candida albicans ATCC SC5314 assessed as eburicol level at 4 ug/ml incubated for 16 hrs by LC/MS analysis (reference value: 4.67 %); parameters: scale not given: the % may be the effect or the level left; conditions: dose 4.0 µg/ml
Candida albicans SC5314 [11] = test: Inhibition of CYP51 in Candida albicans ATCC SC5314 assessed as squalene level at 4 ug/ml incubated for 16 hrs by LC/MS analysis (reference value: 2.25 %); parameters: scale not given: the % may be the effect or the level left; conditions: dose 4.0 µg/ml
Candida albicans SC5314 [12] = test: Inhibition of CYP51 in Candida albicans ATCC SC5314 assessed as unidentified sterol level at 4 ug/ml incubated for 16 hrs by LC/MS analysis (reference value: 7.03 %); parameters: scale not given: the % may be the effect or the level left; conditions: dose 4.0 µg/ml

OC(Cn1cncn1)(Cn1cncn1)c1ccc(F)cc1F [FLUCONAZOLE]
MIC (Candida albicans [1]): 0.25 µg/mL | MIC (Pichia kudriavzevii): 1 µg/mL | MIC (Nakaseomyces glabratus): 0.5 µg/mL | MIC (Aspergillus fumigatus): > 16 µg/mL | MIC (Candida tropicalis): 0.5 µg/mL | MIC (Candida albicans [2]): > 16 µg/mL | MIC (Candida albicans [3]): > 16 µg/mL | MIC (Candida albicans [4]): > 16 µg/mL | MIC (Candida albicans [5]): > 16 µg/mL | MIC (Candida albicans [6]): > 16 µg/mL | Activity (Candida albicans [7]): Active | Activity (Candida albicans SC5314 [8]): 7.62% | Activity (Candida albicans SC5314 [9]): 13.9% | Activity (Candida albicans SC5314 [10]): 65.5% | Activity (Candida albicans SC5314 [11]): 3.68% | Activity (Candida albicans SC5314 [12]): 9.26%
